Laboratory results taken from patent US11903932B2, “Use of dihydroberberine or its derivatives to enhance muscle function” (NANJING NUTRABUILDING BIO-TECH CO., LTD., priority 2021, dated 2024).

What was measured:
Assay type in all cases: in vivo, Sprague Dawley rats
ROS = assay: Reactive oxygen species (ROS) test in serum and skeletal muscle; settings: HFD rats, DHB 100 and 200 mg/kg
Protocol: Male Sprague Dawley rats aged 6-8 weeks were housed under a 12/12 h light/dark cycle at 22° C. and given free access to water and high-fat diet (HFD, 60% kcal from fat) for 12 weeks. After the 12 weeks, all rats were randomly divided into 3 groups of 8 animals. They were supplemented with or without DHB according to the following: • (1) non-supplement group (Con HFD only, Group 1); • (2) DHB supplement group (DHB+HFD, 100 mg/kg, Group 2); • (3) DHB supplement group (DHB+HFD, 200 mg/kg, Group 3). Based on the results of decreased fiber number and insulin resistance, the mitochondrial function in skeletal muscle might be also impaired. ATP and ROS levels in serum and skeletal muscle, which represented mitochondrial function, were further determined. Reactive oxygen species (ROS) test: Ten microliters of skeletal muscle or lysate or 10 μl of serum was added to 127.5 μl of reaction buffer in 96-well plates (containing 30 mM HEPES (pH 7.2), 200 mM KCl, 1 mM MgCl2, and 7.5 μl of 2,2′-azobis(2-methylpropionamidine) dihydrochloride). The same volume of ultrapure water was pipetted into the plate as a blank. The microplate was put into a fluorescence microplate reader at 35° C. 10 μl of the fluorescent probe H2DCF-DA was added to each well for a final concentration of 40 μM immediately before reading, and the level of ROS was detected at 488 and 525 nm.

[1] = Body fat percentage by nuclear magnetic resonance body composition analyzer in high-fat diet rats; settings: HFD rats, FIG. 1
Protocol: Male Sprague Dawley rats aged 6-8 weeks were housed under a 12/12 h light/dark cycle at 22° C. and given free access to water and high-fat diet (HFD, 60% kcal from fat) for 12 weeks. After the 12 weeks, all rats were randomly divided into 3 groups of 8 animals. They were supplemented with or without DHB according to the following: • (1) non-supplement group (Con HFD only, Group 1); • (2) DHB supplement group (DHB+HFD, 100 mg/kg, Group 2); • (3) DHB supplement group (DHB+HFD, 200 mg/kg, Group 3). Before supplementing DHB, the muscle content of all rats was measured by nuclear magnetic resonance body composition analyzer. And then all rats were administered DHB before each major meal once daily by gavage (i.g.) in normal saline solution for 4 months. The muscle content of all rats was tested by nuclear magnetic resonance body composition analyzer every month. […] FIG. 1 is a graph of percentage of body fat of three groups of rats (Con; DHB 100 mg/kg; DHB 200 mg/kg) every month. […] Thus, DHB supplementation could achieve the beneficial effects on weight loss and increasing muscle mass.

[2] = system: glucose transporter type 4 (GLUT4); assay: Insulin stimulating membrane translocation of GLUT4 in skeletal muscle by western blot; settings: HFD rats, DHB groups 100 and 200 mg/kg, especially higher dose; insulin 0.75 IU/kg i.p.; gastrocnemius muscle, FIG. 2
Protocol: (§1) Male Sprague Dawley rats aged 6-8 weeks were housed under a 12/12 h light/dark cycle at 22° C. and given free access to water and high-fat diet (HFD, 60% kcal from fat) for 12 weeks. After the 12 weeks, all rats were randomly divided into 3 groups of 8 animals. They were supplemented with or without DHB according to the following: • (1) non-supplement group (Con HFD only, Group 1); • (2) DHB supplement group (DHB+HFD, 100 mg/kg, Group 2); • (3) DHB supplement group (DHB+HFD, 200 mg/kg, Group 3).
Before the rats were sacrificed, half the rats in each group were injected with 0.75 IU/kg body weight insulin (i.p.) to activate glucose uptake and assess the insulin resistance in the skeletal muscle. […]
To assess that DHB could improve insulin resistance in the skeletal muscle, the insulin stimulating membrane translocation of glucose transporter type 4 (GLUT4) by the western blot analysis was measured and compared among the groups. […]
Western blot analysis: The concentration of protein in the gastrocnemius muscle was quantitated by piercing bicinchoninic acid (BCA), and 120 μg of total protein was electrophoresed on a 12% SDS polyacrylamide gel and electro-transferred onto Polyvinylidene difluoride (PVDF) membranes. […] The images were quantified using Image Analysis Software.

AMPK/SIRT1/PGC-1α = assay: Western blot of AMPK/SIRT1/PGC-1α protein expression in muscle tissue; settings: HFD rats, skeletal muscle
Protocol: as §1
(§2) Before the rats were sacrificed, half the rats in each group were injected with 0.75 IU/kg body weight insulin (i.p.) to activate glucose uptake and assess the insulin resistance in the skeletal muscle. Fifteen minutes later, all the rats were anesthetized with chloral hydrate; the soleus muscles were fixed in paraformaldehyde, and the gastrocnemius muscles were frozen immediately in liquid nitrogen and stored at −80° C. for protein-related experiments.
Protein sample preparation: For total protein extraction, 100 mg of the frozen gastrocnemius muscle was homogenized in radioimmunoprecipitation assay (RIPA) buffer (containing 0.2 μg/mL PMSF and 10 μg/mL phosphatase inhibitor) for 30 min and then centrifuged at 3,500 rpm×15 min and 12,000 rpm×15 min. The supernatants were extracted for the western blot analysis.
Western blot analysis: The concentration of protein in the gastrocnemius muscle was quantitated by piercing bicinchoninic acid (BCA), and 120 μg of total protein was electrophoresed on a 12% SDS polyacrylamide gel and electro-transferred onto Polyvinylidene difluoride (PVDF) membranes. Membranes were blocked with 5% (w/v) BSA for 2 h at room temperature and then incubated with primary antibodies overnight at 4° C. with slight shaking. After being washed with TBST three times, the membranes were incubated with a secondary antibody (1:2000) at room temperature for 2 h. The protein bands were visualized by enhanced chemiluminescence with a GENE Imaging system. The images were quantified using Image Analysis Software.
Western blot was used to check the protein expression of AMPK/SIRT1/PGC-1α in the muscle tissue.

ATP = ATP determination in serum and skeletal muscle (ELISA); settings: HFD rats
Protocol: Male Sprague Dawley rats aged 6-8 weeks were housed under a 12/12 h light/dark cycle at 22° C. and given free access to water and high-fat diet (HFD, 60% kcal from fat) for 12 weeks. After the 12 weeks, all rats were randomly divided into 3 groups of 8 animals. They were supplemented with or without DHB according to the following: • (1) non-supplement group (Con HFD only, Group 1); • (2) DHB supplement group (DHB+HFD, 100 mg/kg, Group 2); • (3) DHB supplement group (DHB+HFD, 200 mg/kg, Group 3). Based on the results of decreased fiber number and insulin resistance, the mitochondrial function in skeletal muscle might be also impaired. ATP and ROS levels in serum and skeletal muscle, which represented mitochondrial function, were further determined. ATP determination: The ATP concentration in the gastrocnemius muscle was measured using ELISA according to the manufacturer's instructions. Before the ELISA was tested, the gastrocnemius muscle lysates were first measured with a BCA protein assay kit, and the total protein concentration of each group was adjusted to the same by RIPA. The concentration of ATP was then calculated based on the absorption density determined at 450 nm.

soleus muscles = assay: HE staining of soleus, morphological changes of the skeletal muscle; settings: HFD rats, DHB supplementation groups, especially group 3 (200 mg/kg)
Protocol: as §1, §2
To evaluate the morphological changes of the skeletal muscle, HE staining of soleus was conducted. Hematoxylin-eosin (HE) staining: Soleus muscles were fixed in paraformaldehyde overnight, dehydrated in an ascending graded ethanol series, equilibrated with xylene, embedded in paraffin and sectioned into 5- to 10-μm slices. Then, the samples were dewaxed with xylene and a descending graded ethanol series. […]

Structure (SMILES): COc1ccc2c(c1OC)CN1CCc3cc4c(cc3C1=C2)OCO4 [DHB, dihydroberberine]
- ROS level in serum (ROS; serum, FIG. 4b): inhibit increased ROS effectively
- ROS level in skeletal muscle (ROS; skeletal muscle, FIG. 4d): inhibit increased ROS effectively
- reduction in body fat compared to control group ([1]; DHB 100 and 200 mg/kg i.g. once daily for 4 months): greater reduction in body fat
- decrease of percentage of body fat versus beginning of supplementation ([1]; higher dose group (200 mg/kg) i.g. once daily, 4 months): about 52%
- membrane translocation of GLUT4 after insulin stimulation relative to control group [2]: remarkably increased
- total AMPK protein expression among the three groups (AMPK/SIRT1/PGC-1α; DHB 100 and 200 mg/kg vs control, GAPDH as internal reference, FIG. 4e): no significant difference
- protein expression of p-AMPK (AMPK/SIRT1/PGC-1α; DHB groups, especially group 3 (200 mg/kg), FIG. 4e): dramatically upregulated
- protein expression of SIRT1 relative to the control group (AMPK/SIRT1/PGC-1α; group 3 (DHB 200 mg/kg), FIG. 4f): approximately 1.9 fold
- protein expression of PGC-1α relative to the control group (AMPK/SIRT1/PGC-1α; group 3 (DHB 200 mg/kg), FIG. 4g): ~2 fold
- production of ATP in serum relative to the control group (ATP; DHB 200 mg/kg, serum, FIG. 4a): 1.6 fold
- production of ATP in skeletal muscle relative to the control group (ATP; DHB 200 mg/kg, skeletal muscle, FIG. 4c): 2.7 fold
- production of ATP in serum (ATP; DHB treatment 100 and 200 mg/kg, serum, FIG. 4a): increased significantly
- production of ATP in skeletal muscle (ATP; DHB treatment 100 and 200 mg/kg, skeletal muscle, FIG. 4c): increased significantly
- number of muscle fibers compared with the control group (soleus muscles; FIG. 3a): increased dramatically
- relative cross-sectional area of the muscle fibers versus control group (soleus muscles; FIG. 3b): dropped below that of the control group
